According to paper PMC3445516 (PLoS ONE, 2012):

How the values were obtained:
Test in all cases: Ambit kinase profiling, competition binding
YSK1 = biological target: T1, YSK1 (Homo sapiens, UniProt O00506); conditions: compound concentration 10 uM, read-out: Percent Competition
T1 construct: purchased Ambit Biosciences (KINOMEscan)
Text: (§1) Supplement pone.0044653.s004.xls, sheet "Compound 122" | column: Percent Competition

MKNK1 = biological target: T2, MKNK1 (Homo sapiens, UniProt Q9BUB5); conditions: compound concentration 10 uM, read-out: Percent Competition
T2 construct: purchased Ambit Biosciences (KINOMEscan)
Text: as §1

CDK11 = biological target: T3, CDK11 (Homo sapiens, UniProt Q9BWU1); conditions: compound concentration 10 uM
T3 construct: purchased Ambit Biosciences (KINOMEscan)
Text: as §1

RIOK3 = biological target: T4, RIOK3 (Homo sapiens, UniProt O14730); conditions: compound concentration 10 uM, read-out: Percent Competition
T4 construct: purchased Ambit Biosciences (KINOMEscan)
Text: as §1

EPHA4 = biological target: T5, EPHA4 (Homo sapiens, UniProt P54764); conditions: compound concentration 10 uM, read-out: Percent Competition
T5 construct: purchased Ambit Biosciences (KINOMEscan)
Text: as §1

AURKA = biological target: T6, AURKA (Homo sapiens, UniProt O14965); conditions: compound concentration 10 uM, read-out: Percent Competition
T6 construct: purchased Ambit Biosciences (KINOMEscan)
Text: as §1

BMPR1A = biological target: T7, BMPR1A (Homo sapiens, UniProt P36894); conditions: compound concentration 10 uM, read-out: Percent Competition
T7 construct: purchased Ambit Biosciences (KINOMEscan)
Text: as §1

[1] = biological target: T8, RPS6KA3(Kin.Dom.1-N-terminal) (Homo sapiens, UniProt P51812); conditions: compound concentration 10 uM, read-out: Percent Competition
T8 construct: RPS6KA3(Kin.Dom.1-N-terminal); purchased Ambit Biosciences (KINOMEscan)
Text: as §1

NEK5 = biological target: T9, NEK5 (Homo sapiens, UniProt Q6P3R8); conditions: compound concentration 10 uM, read-out: Percent Competition
T9 construct: purchased Ambit Biosciences (KINOMEscan)
Text: as §1

[2] = biological target: T10, RPS6KA5(Kin.Dom.1-N-terminal) (Homo sapiens, UniProt O75582); conditions: compound concentration 10 uM, read-out: Percent Competition
T10 construct: RPS6KA5(Kin.Dom.1-N-terminal); purchased Ambit Biosciences (KINOMEscan)
Text: as §1

PIM2 = biological target: T11, PIM2 (Homo sapiens, UniProt Q9P1W9); conditions: compound concentration 10 uM, read-out: Percent Competition
T11 construct: purchased Ambit Biosciences (KINOMEscan)
Text: as §1

MYO3A = biological target: T12, MYO3A (Homo sapiens, UniProt Q8NEV4); conditions: compound concentration 10 uM, read-out: Percent Competition
T12 construct: purchased Ambit Biosciences (KINOMEscan)
Text: as §1

IKK-alpha = biological target: T13, IKK-alpha (Homo sapiens, UniProt O15111); conditions: compound concentration 10 uM, read-out: Percent Competition
T13 construct: purchased Ambit Biosciences (KINOMEscan)
Text: as §1

[3] = biological target: T14, RPS6KA6(Kin.Dom.1-N-terminal) (Homo sapiens, UniProt Q9UK32); conditions: compound concentration 10 uM
T14 construct: RPS6KA6(Kin.Dom.1-N-terminal); purchased Ambit Biosciences (KINOMEscan)
Text: as §1

MAP3K4 = biological target: T15, MAP3K4 (Homo sapiens, UniProt Q9Y6R4); conditions: compound concentration 10 uM, read-out: Percent Competition
T15 construct: purchased Ambit Biosciences (KINOMEscan)
Text: as §1

BMX = biological target: T16, BMX (Homo sapiens, UniProt P51813); conditions: compound concentration 10 uM, read-out: Percent Competition
T16 construct: purchased Ambit Biosciences (KINOMEscan)
Text: as §1

MINK = biological target: T17, MINK (Homo sapiens, UniProt Q8N4C8); conditions: compound concentration 10 uM, read-out: Percent Competition
T17 construct: purchased Ambit Biosciences (KINOMEscan)
Text: as §1

TRKC = biological target: T18, TRKC (Homo sapiens, UniProt Q16288); conditions: compound concentration 10 uM, read-out: Percent Competition
T18 construct: purchased Ambit Biosciences (KINOMEscan)
Text: as §1

LIMK1 = biological target: T19, LIMK1 (Homo sapiens, UniProt P53667); conditions: compound concentration 10 uM, read-out: Percent Competition
T19 construct: purchased Ambit Biosciences (KINOMEscan)
Text: as §1

DCAMKL1 = biological target: T20, DCAMKL1 (Homo sapiens, UniProt O15075); conditions: compound concentration 10 uM
T20 construct: purchased Ambit Biosciences (KINOMEscan)
Text: as §1

[4] = biological target: T21, RPS6KA2(Kin.Dom.1-N-terminal) (Homo sapiens, UniProt Q15349); conditions: compound concentration 10 uM, read-out: Percent Competition
T21 construct: RPS6KA2(Kin.Dom.1-N-terminal); purchased Ambit Biosciences (KINOMEscan)
Text: as §1

SIK2 = biological target: T22, SIK2 (Homo sapiens, UniProt Q9H0K1); conditions: compound concentration 10 uM, read-out: Percent Competition
T22 construct: purchased Ambit Biosciences (KINOMEscan)
Text: as §1

DLK = biological target: T23, DLK (Homo sapiens, UniProt Q12852); conditions: compound concentration 10 uM
T23 construct: purchased Ambit Biosciences (KINOMEscan)
Text: as §1

ABL1(Y253F) = biological target: T24, ABL1(Y253F) (Homo sapiens, UniProt P00519, Y253F); conditions: compound concentration 10 uM, read-out: Percent Competition
T24 construct: purchased Ambit Biosciences (KINOMEscan)
Text: as §1

EPHA7 = biological target: T25, EPHA7 (Homo sapiens, UniProt Q15375); conditions: compound concentration 10 uM, read-out: Percent Competition
T25 construct: purchased Ambit Biosciences (KINOMEscan)
Text: as §1

ABL1(F317I) = biological target: T26, ABL1(F317I) (Homo sapiens, UniProt P00519, F317I); conditions: compound concentration 10 uM, read-out: Percent Competition
T26 construct: purchased Ambit Biosciences (KINOMEscan)
Text: as §1

FYN = biological target: T27, FYN (Homo sapiens, UniProt P06241); conditions: compound concentration 10 uM, read-out: Percent Competition
T27 construct: purchased Ambit Biosciences (KINOMEscan)
Text: as §1

PAK1 = biological target: T28, PAK1 (Homo sapiens, UniProt Q13153); conditions: compound concentration 10 uM, read-out: Percent Competition
T28 construct: purchased Ambit Biosciences (KINOMEscan)
Text: as §1

ALK = biological target: T29, ALK (Homo sapiens, UniProt Q9UM73); conditions: compound concentration 10 uM, read-out: Percent Competition
T29 construct: purchased Ambit Biosciences (KINOMEscan)
Text: as §1

ARK5 = biological target: T30, ARK5 (Homo sapiens, UniProt O60285); conditions: compound concentration 10 uM
T30 construct: purchased Ambit Biosciences (KINOMEscan)
Text: as §1

PIM3 = biological target: T31, PIM3 (Homo sapiens, UniProt Q86V86); conditions: compound concentration 10 uM, read-out: Percent Competition
T31 construct: purchased Ambit Biosciences (KINOMEscan)
Text: as §1

TRKB = biological target: T32, TRKB (Homo sapiens, UniProt Q16620); conditions: compound concentration 10 uM, read-out: Percent Competition
T32 construct: purchased Ambit Biosciences (KINOMEscan)
Text: as §1

EPHA5 = biological target: T33, EPHA5 (Homo sapiens, UniProt P54756); conditions: compound concentration 10 uM
T33 construct: purchased Ambit Biosciences (KINOMEscan)
Text: as §1

ULK1 = biological target: T34, ULK1 (Homo sapiens, UniProt O75385); conditions: compound concentration 10 uM
T34 construct: purchased Ambit Biosciences (KINOMEscan)
Text: as §1

AKT2 = biological target: T35, AKT2 (Homo sapiens, UniProt P31751); conditions: compound concentration 10 uM, read-out: Percent Competition
T35 construct: purchased Ambit Biosciences (KINOMEscan)
Text: as §1

PIP5K1A = biological target: T36, PIP5K1A (Homo sapiens, UniProt Q99755); conditions: compound concentration 10 uM, read-out: Percent Competition
T36 construct: purchased Ambit Biosciences (KINOMEscan)
Text: as §1

PIK3CA = biological target: T37, PIK3CA (Homo sapiens, UniProt P42336); conditions: compound concentration 10 uM, read-out: Percent Competition
T37 construct: purchased Ambit Biosciences (KINOMEscan)
Text: as §1

HCK = biological target: T38, HCK (Homo sapiens, UniProt P08631); conditions: compound concentration 10 uM, read-out: Percent Competition
T38 construct: purchased Ambit Biosciences (KINOMEscan)
Text: as §1

RIOK2 = biological target: T39, RIOK2 (Homo sapiens, UniProt Q9BVS4); conditions: compound concentration 10 uM, read-out: Percent Competition
T39 construct: purchased Ambit Biosciences (KINOMEscan)
Text: as §1

T36 sequence (Q99755 whole entry): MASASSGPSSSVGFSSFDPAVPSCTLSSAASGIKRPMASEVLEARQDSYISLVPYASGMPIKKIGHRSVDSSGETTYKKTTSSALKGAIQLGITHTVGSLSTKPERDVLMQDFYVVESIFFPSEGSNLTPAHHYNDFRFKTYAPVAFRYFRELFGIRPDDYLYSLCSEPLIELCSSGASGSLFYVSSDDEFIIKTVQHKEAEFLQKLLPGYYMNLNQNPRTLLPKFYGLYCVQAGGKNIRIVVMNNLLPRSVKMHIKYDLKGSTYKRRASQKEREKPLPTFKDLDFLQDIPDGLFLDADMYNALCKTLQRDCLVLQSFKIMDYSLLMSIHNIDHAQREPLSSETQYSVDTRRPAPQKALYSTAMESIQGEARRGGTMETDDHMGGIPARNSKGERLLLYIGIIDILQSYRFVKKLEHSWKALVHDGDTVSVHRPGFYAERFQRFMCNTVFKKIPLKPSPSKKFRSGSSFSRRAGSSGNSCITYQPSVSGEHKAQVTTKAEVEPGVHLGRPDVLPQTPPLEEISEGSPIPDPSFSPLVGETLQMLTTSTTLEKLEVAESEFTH
T14 sequence (Q9UK32 1-400 limits assumed): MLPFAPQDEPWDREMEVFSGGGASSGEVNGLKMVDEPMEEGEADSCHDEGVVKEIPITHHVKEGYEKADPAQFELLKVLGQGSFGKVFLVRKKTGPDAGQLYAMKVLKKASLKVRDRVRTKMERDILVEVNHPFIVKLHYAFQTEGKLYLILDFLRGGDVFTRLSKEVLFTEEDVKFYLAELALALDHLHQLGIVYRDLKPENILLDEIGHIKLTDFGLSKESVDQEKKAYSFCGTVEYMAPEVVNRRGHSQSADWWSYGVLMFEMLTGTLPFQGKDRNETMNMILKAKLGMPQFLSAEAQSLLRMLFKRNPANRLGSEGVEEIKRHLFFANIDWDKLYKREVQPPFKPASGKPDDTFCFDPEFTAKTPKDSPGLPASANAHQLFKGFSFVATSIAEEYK
T35 sequence (P31751 whole entry): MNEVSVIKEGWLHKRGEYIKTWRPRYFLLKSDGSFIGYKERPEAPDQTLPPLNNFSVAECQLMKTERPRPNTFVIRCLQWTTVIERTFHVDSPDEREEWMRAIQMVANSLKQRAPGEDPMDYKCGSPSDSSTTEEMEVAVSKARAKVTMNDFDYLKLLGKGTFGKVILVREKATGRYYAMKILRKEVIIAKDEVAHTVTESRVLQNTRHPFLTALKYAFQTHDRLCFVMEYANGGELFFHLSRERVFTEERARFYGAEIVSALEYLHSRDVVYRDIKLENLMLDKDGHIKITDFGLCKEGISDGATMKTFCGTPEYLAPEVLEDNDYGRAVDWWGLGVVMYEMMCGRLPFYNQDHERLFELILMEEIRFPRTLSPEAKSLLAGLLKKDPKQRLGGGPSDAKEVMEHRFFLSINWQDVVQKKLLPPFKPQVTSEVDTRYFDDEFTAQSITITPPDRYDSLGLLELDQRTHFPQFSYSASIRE
T28 sequence (Q13153 whole entry): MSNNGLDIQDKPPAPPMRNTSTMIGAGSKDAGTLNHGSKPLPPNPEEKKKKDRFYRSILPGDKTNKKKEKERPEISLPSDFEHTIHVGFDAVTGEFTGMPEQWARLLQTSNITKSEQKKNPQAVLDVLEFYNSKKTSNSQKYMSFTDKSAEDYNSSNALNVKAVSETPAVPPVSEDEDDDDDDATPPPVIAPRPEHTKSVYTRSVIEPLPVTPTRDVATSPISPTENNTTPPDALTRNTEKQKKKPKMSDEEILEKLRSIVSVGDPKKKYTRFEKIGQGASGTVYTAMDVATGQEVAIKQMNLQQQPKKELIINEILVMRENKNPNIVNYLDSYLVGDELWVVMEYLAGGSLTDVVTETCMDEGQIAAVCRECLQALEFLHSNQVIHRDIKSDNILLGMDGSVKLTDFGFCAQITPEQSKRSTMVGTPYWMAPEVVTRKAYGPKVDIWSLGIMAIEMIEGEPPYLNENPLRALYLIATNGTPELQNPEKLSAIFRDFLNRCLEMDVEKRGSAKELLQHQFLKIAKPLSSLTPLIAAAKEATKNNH
T29 sequence (Q9UM73 19-1620): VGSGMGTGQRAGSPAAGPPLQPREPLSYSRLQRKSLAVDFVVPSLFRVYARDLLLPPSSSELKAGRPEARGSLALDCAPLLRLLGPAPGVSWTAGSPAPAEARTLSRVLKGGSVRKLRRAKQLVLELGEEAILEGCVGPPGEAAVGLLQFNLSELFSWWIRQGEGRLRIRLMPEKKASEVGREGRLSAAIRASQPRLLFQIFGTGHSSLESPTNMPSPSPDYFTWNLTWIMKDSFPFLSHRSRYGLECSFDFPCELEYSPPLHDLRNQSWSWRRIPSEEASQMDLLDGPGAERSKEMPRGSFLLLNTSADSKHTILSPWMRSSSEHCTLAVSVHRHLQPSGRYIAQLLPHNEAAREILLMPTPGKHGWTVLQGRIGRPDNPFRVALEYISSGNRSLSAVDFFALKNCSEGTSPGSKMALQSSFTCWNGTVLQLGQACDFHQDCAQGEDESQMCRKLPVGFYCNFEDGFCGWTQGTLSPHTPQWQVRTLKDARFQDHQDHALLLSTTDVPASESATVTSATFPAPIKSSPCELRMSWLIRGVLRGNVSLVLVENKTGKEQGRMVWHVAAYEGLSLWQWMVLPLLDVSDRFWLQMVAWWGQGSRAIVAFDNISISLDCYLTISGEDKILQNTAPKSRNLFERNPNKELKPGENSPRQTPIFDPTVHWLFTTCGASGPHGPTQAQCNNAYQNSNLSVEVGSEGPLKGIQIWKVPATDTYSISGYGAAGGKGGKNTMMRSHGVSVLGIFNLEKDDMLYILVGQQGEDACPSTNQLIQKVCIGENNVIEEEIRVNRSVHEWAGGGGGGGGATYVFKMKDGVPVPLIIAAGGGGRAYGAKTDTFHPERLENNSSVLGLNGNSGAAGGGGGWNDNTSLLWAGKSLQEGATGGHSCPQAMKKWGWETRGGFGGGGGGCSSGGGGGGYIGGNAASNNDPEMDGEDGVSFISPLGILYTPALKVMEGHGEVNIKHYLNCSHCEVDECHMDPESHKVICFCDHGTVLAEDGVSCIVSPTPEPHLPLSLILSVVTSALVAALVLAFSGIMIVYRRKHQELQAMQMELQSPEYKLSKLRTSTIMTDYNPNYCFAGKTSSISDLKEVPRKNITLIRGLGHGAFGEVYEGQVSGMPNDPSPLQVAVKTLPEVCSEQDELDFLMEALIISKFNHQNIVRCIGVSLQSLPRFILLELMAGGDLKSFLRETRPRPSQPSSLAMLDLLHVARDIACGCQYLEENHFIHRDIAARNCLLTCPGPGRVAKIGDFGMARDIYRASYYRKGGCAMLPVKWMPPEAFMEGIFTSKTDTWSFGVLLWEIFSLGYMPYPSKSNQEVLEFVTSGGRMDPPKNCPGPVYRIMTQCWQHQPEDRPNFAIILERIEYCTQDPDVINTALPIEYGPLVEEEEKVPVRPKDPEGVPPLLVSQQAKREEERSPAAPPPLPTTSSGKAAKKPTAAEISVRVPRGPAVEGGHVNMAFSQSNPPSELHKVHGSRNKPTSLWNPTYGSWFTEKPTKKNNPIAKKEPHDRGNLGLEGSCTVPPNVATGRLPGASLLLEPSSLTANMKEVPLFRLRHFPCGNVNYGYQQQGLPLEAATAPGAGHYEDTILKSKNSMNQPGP
T13 sequence (O15111 whole entry): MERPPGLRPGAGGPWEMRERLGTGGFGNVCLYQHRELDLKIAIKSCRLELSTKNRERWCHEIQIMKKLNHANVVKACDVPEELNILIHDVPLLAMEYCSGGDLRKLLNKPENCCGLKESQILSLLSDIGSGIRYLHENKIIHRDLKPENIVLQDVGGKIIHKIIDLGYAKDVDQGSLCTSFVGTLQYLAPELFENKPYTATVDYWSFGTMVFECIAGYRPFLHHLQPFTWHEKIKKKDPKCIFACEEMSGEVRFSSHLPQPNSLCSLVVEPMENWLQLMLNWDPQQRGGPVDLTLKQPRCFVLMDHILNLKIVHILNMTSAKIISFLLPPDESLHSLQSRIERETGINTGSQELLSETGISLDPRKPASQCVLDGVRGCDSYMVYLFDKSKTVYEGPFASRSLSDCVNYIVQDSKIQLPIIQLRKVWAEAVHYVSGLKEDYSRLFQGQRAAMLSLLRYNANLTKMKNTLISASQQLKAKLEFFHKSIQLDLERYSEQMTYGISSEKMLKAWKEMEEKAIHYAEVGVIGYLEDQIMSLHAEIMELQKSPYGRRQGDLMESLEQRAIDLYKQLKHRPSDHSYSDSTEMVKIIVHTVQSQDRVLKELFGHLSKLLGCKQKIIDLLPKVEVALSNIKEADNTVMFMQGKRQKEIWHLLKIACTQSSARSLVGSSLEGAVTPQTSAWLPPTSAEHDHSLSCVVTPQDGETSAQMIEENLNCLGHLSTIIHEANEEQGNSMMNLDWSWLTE
T38 sequence (P08631 whole entry): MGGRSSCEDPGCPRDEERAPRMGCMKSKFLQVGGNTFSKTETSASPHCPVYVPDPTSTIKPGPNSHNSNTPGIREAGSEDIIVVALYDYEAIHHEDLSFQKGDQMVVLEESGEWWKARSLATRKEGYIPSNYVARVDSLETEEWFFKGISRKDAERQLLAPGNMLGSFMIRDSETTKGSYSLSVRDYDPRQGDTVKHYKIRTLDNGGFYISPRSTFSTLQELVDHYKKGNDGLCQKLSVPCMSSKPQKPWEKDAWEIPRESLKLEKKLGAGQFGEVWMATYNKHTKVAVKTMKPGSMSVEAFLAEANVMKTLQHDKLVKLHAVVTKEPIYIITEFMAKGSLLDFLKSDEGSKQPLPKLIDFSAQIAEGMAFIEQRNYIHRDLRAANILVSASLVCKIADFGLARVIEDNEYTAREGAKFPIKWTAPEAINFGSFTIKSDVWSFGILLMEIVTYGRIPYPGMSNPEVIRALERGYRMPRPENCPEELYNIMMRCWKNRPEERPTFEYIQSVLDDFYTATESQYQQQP

SMILES: Fc1ccc(-c2c(-c3ccncc3)[nH]c3nccnc23)cc1 [RO1155697-000-005]
- inhibition at 10 µM (YSK1): < 50%
- inhibition at 10 µM (MKNK1): < 50%
- Percent Competition (CDK11): <50%
- inhibition at 10 µM (RIOK3): < 50%
- inhibition at 10 µM (EPHA4): < 50%
- inhibition at 10 µM (AURKA): < 50%
- inhibition at 10 µM (BMPR1A): < 50%
- inhibition at 10 µM [1]: < 50%
- inhibition at 10 µM (NEK5): < 50%
- inhibition at 10 µM [2]: < 50%
- inhibition at 10 µM (PIM2): < 50%
- inhibition at 10 µM (MYO3A): < 50%
- inhibition at 10 µM (IKK-alpha): < 50%
- Percent Competition [3]: <50%
- inhibition at 10 µM (MAP3K4): < 50%
- inhibition at 10 µM (BMX): < 50%
- inhibition at 10 µM (MINK): < 50%
- inhibition at 10 µM (TRKC): < 50%
- inhibition at 10 µM (LIMK1): < 50%
- Percent Competition (DCAMKL1): <50%
- inhibition at 10 µM [4]: < 50%
- inhibition at 10 µM (SIK2): < 50%
- Percent Competition (DLK): <50%
- inhibition at 10 µM (ABL1(Y253F)): < 50%
- inhibition at 10 µM (EPHA7): < 50%
- inhibition at 10 µM (ABL1(F317I)): < 50%
- inhibition at 10 µM (FYN): < 50%
- inhibition at 10 µM (PAK1): < 50%
- inhibition at 10 µM (ALK): < 50%
- Percent Competition (ARK5): <50%
- inhibition at 10 µM (PIM3): < 50%
- inhibition at 10 µM (TRKB): < 50%
- Percent Competition (EPHA5): <50%
- Percent Competition (ULK1): <50%
- inhibition at 10 µM (AKT2): < 50%
- inhibition at 10 µM (PIP5K1A): < 50%
- inhibition at 10 µM (PIK3CA): < 50%
- inhibition at 10 µM (HCK): < 50%
- inhibition at 10 µM (RIOK2): < 50%
